Measured values taken from patent US11203571B2, “Sulfonamides as modulators of sodium channels” (VERTEX PHARMACEUTICALS INCORPORATED, priority 2013, dated 2021).
pIC50: −log10 of the molar value.

How the values were obtained:
[1] = Human liver microsome assay; assay type: in vitro ADME; settings: 1 uM substrate, 0.5 mg/mL liver microsome, 2 mM NADPH, 37° C., referenced against time zero control
Description: Human Liver Microsome Assay Protocol
Liver microsomal stability data were generated as follows. Substrates were incubated at 37° C. and shaken for 30 minutes in a phosphate buffered solution with human liver microsomes and the cofactor NADPH. A time zero control was similarly prepared, however with NADPH excluded. The final incubation concentrations were 1 uM substrate (0.2% DMSO), 0.5 mg/mL liver microsome, 2 mM NADPH, and 0.1 M phosphate. Reactions were quenched and proteins precipitated with the addition of 2 volume equivalents of ice cold acetonitrile containing an internal standard. Following a centrifugation step, aliquots from the quenched incubations were further diluted with 4 volume equivalents of a 50% aqueous methanol solution and then subjected to LC/MS/MS analysis for quantitation of parent substrate. Microsome stability values were calculated as the percent of substrate remaining after 30 minutes referenced against the time zero control.

human Nav1.8 = human Nav1.8 (Homo sapiens (Human), UniProt Q9Y5Y9); assay: E-VIPR optical membrane potential assay with electrical stimulation; assay type: cell-based; settings: HEK cells expressing human Nav1.8
Text: E-VIPR Optical Membrane Potential Assay Method with Electrical Stimulation
Sodium channels are voltage-dependent proteins that can be activated by inducing membrane voltage changes by applying electric fields. The electrical stimulation instrument and methods of use are described in Ion Channel Assay Methods PCT/US01/21652, herein incorporated by reference and are referred to as E-VIPR. The instrument comprises a microtiter plate handler, an optical system for exciting the coumarin dye while simultaneously recording the coumarin and oxonol emissions, a waveform generator, a current- or voltage-controlled amplifier, and a device for inserting electrodes in well. Under integrated computer control, this instrument passes user-programmed electrical stimulus protocols to cells within the wells of the microtiter plate.
24 hours before the assay on E-VIPR, HEK cells expressing human Nav1.8 were seeded in 384-well poly-lysine coated plates at 15,000-20,000 cells per well. HEK cells were grown in media (exact composition is specific to each cell type and NaV subtype) supplemented with 10% FBS (Fetal Bovine Serum, qualified; GibcoBRL #16140-071) and 1% Pen-Strep (Penicillin-Streptomycin; GibcoBRL #15140-122). Cells were grown in vented cap flasks, in 90% humidity and 5% CO2.
• 100 mg/mL Pluronic F-127 (Sigma #P2443), in dry DMSO • Compound Plates: 384-well round bottom plate, e.g. Corning 384-well Polypropylene Round Bottom #3656 • Cell Plates: 384-well tissue culture treated plate, e.g. Greiner #781091-1B • 10 mM DiSBAC6(3) (Aurora #00-100-010) in dry DMSO • 10 mM CC2-DMPE (Aurora #00-100-008) in dry DMSO • 200 mM ABSC1 in H20
Bath1 buffer: Glucose 10 mM (1.8 g/L), Magnesium Chloride (Anhydrous), 1 mM (0.095 g/L), Calcium Chloride, 2 mM (0.222 g/L), HEPES 10 mM (2.38 g/L), Potassium Chloride, 4.5 mM (0.335 g/L), Sodium Chloride 160 mM (9.35 g/L).
Hexyl Dye Solution: Bath1 Buffer+0.5% β-cyclodextrin (make this prior to use, Sigma #C4767), 8 μM CC2-DMPE+2.5 μM DiSBAC6(3). To make the solution Added volume of 10% Pluronic F127 stock equal to volumes of CC2-DMPE+DiSBAC6(3). The order of preparation was first mix Pluronic and CC2-DMPE, then added DiSBAC6(3) while vortexing, then added Bath1+β-Cyclodextrin.
1) Pre-spotted compounds (in neat DMSO) into compound plates. Vehicle control (neat DMSO), the positive control (20 mM DMSO stock tetracaine, 125 μM final in assay) and test compounds were added to each well at 160× desired final concentration in neat DMSO. Final compound plate volume was 80 μL (80-fold intermediate dilution from 1 μL DMSO spot; 160-fold final dilution after transfer to cell plate). Final DMSO concentration for all wells in assay was 0.625%.
2) Prepared Hexyl Dye Solution.
3) Prepared cell plates. On the day of the assay, medium was aspirated and cells were washed three times with 100 μL of Bath1 Solution, maintaining 25 μL residual volume in each well.
4) Dispensed 25 μL per well of Hexyl Dye Solution into cell plates. Incubated for 20-35 minutes at room temp or ambient conditions.
5) Dispensed 80 μL per well of Bath1 into compound plates. Acid Yellow-17 (1 mM) was added and Potassium Chloride was altered from 4.5 to 20 mM depending on the NaV subtype and assay sensitivity.
6) Washed cell plates three times with 100 μL per well of Bath1, leaving 25 μL of residual volume. Then transferred 25 uL per well from Compound Plates to Cell Plates. Incubated for 20-35 minutes at room temp/ambient condition.
7) Read Plate on E-VIPR. Used the current-controlled amplifier to deliver stimulation wave pulses for 10 seconds and a scan rate of 200 Hz. A pre-stimulus recording was performed for 0.5 seconds to obtain the un-stimulated intensities baseline. The stimulatory waveform was followed by 0.5 seconds of post-stimulation recording to examine the relaxation to the resting state.
Data was analyzed and reported as normalized ratios of emission intensities measured in the 460 nm and 580 nm channels. […]

Sequence of human Nav1.8 (Q9Y5Y9 whole entry): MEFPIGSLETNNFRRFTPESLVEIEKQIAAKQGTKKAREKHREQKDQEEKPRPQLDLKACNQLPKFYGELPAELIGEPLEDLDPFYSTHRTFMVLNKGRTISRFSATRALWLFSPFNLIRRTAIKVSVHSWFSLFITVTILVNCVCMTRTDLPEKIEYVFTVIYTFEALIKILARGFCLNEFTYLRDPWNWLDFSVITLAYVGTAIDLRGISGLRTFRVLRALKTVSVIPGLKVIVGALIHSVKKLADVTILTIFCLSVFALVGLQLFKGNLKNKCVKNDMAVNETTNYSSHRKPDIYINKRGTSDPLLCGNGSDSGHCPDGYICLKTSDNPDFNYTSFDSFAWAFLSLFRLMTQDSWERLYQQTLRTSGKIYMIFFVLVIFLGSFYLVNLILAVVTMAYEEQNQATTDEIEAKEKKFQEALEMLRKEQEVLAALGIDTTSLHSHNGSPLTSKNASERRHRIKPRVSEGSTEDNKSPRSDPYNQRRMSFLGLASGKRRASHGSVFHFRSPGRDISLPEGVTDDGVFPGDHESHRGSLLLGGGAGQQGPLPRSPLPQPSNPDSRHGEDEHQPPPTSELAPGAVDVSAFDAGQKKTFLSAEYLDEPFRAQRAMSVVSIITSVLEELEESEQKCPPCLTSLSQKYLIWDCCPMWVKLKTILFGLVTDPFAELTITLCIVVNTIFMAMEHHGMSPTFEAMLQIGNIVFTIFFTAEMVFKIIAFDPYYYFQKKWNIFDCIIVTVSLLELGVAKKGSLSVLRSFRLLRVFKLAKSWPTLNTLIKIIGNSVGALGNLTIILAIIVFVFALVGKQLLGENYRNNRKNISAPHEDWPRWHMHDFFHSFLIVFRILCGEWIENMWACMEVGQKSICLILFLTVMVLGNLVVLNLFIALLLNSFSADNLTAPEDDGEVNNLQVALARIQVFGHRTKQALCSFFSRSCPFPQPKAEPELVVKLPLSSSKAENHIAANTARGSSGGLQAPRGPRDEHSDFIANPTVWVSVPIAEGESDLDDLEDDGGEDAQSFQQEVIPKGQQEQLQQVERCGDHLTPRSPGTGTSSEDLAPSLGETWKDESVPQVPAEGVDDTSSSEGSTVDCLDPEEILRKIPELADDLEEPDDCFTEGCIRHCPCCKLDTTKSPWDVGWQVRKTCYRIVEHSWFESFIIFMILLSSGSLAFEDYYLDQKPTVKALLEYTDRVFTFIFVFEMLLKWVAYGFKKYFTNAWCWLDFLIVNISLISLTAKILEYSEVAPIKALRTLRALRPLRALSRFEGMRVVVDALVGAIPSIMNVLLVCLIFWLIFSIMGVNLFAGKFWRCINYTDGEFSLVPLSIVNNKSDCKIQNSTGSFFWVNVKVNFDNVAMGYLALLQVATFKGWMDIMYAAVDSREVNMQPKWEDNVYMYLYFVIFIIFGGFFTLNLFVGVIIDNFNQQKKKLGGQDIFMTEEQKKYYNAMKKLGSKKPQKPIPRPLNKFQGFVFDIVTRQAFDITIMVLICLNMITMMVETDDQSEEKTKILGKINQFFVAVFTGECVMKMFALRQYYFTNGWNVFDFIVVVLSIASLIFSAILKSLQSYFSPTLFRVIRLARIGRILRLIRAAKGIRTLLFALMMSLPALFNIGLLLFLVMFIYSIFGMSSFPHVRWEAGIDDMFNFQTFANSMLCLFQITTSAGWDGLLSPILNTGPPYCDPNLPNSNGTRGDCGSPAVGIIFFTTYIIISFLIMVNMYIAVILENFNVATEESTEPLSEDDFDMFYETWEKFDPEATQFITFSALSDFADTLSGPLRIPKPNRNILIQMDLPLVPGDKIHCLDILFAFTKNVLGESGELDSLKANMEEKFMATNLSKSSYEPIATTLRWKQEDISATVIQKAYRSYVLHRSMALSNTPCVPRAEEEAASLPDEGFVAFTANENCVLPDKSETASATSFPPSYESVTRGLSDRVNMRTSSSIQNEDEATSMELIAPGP

HLM: percent unchanged after 30 min [1] [%] | pIC50 (human Nav1.8) | Structure (SMILES)
94 | 8.05 | Cc1cc(F)ccc1Oc1cccc(C(F)(F)F)c1C(=O)Nc1cccc(S(N)(=O)=O)c1 [Compound 12, 2-(4-fluoro-2-methylphenoxy)-N-(3-sulfamoylphenyl)-6-(trifluoromethyl)benzamide]
78 | 8.70 | COc1cc(F)ccc1Oc1cccc(C(F)(F)F)c1C(=O)Nc1cccc(S(N)(=O)=O)c1 [Compound 13, 2-(4-fluoro-2-methoxyphenoxy)-N-(3-sulfamoylphenyl)-6-(trifluoromethyl)benzamide]
83 | 8.30 | COc1cc(F)ccc1Oc1cc(C(F)(F)F)ccc1C(=O)Nc1cccc(S(N)(=O)=O)c1 [Compound 14, 2-(4-fluoro-2-methoxyphenoxy)-N-(3-sulfamoylphenyl)-4-(trifluoromethyl)benzamide]
81 | 7.89 | COc1cc(F)ccc1Oc1cc(Cl)ccc1C(=O)Nc1cccc(S(N)(=O)=O)c1 [Compound 15, 4-chloro-2-(4-fluoro-2-methoxy-phenoxy)-N-(3-sulfamoylphenyl)benzamide]
86 | 8.15 | COc1cc(F)ccc1Oc1ccc(Cl)cc1C(=O)Nc1cccc(S(N)(=O)=O)c1 [Compound 16, 5-chloro-2-(4-fluoro-2-methoxyphenoxy)-N-(3-sulfamoylphenyl)benzamide]
102 | 8.30 | NS(=O)(=O)c1cccc(NC(=O)c2cc(Cl)ccc2Oc2ccc(F)cc2Cl)c1 [Compound 17, 5-chloro-2-(2-chloro-4-fluorophenoxy)-N-(3-sulfamoylphenyl)benzamide]
98 | 8.15 | Cc1cc(F)ccc1Oc1cc(C(F)(F)F)ccc1C(=O)Nc1cccc(S(N)(=O)=O)c1 [Compound 18, 2-(4-fluoro-2-methylphenoxy)-N-(3-sulfamoylphenyl)-4-(trifluoromethyl)benzamide]
94 | 7.80 | Cc1cc(F)ccc1Oc1cc(Cl)ccc1C(=O)Nc1cccc(S(N)(=O)=O)c1 [Compound 19, 4-chloro-2-(4-fluoro-2-methyl-phenoxy)-N-(3-sulfamoylphenyl)benzamide]
96 | 8.40 | Cc1cc(F)ccc1Oc1ccc(Cl)cc1C(=O)Nc1cccc(S(N)(=O)=O)c1 [Compound 20, 5-chloro-2-(4-fluoro-2-methylphenoxy)-N-(3-sulfamoylphenyl)benzamide]
96 | 7.64 | Cc1cc(F)ccc1Oc1ccc(F)cc1C(=O)Nc1cccc(S(N)(=O)=O)c1 [Compound 21, 5-fluoro-2-(4-fluoro-2-methylphenoxy)-N-(3-sulfamoylphenyl)benzamide]
88 | 7.55 | COc1ccc(Oc2ccc(C(F)(F)F)cc2C(=O)Nc2cccc(S(N)(=O)=O)c2)cc1 [Compound 22, 2-(4-methoxyphenoxy)-N-(3-sulfamoylphenyl)-5-(trifluoromethyl)benzamide]
75 | 7.85 | CCOc1ccc(Oc2ccc(C(F)(F)F)cc2C(=O)Nc2cccc(S(N)(=O)=O)c2)cc1 [Compound 23, 2-(4-ethoxyphenoxy)-N-(3-sulfamoylphenyl)-5-(trifluoromethyl)benzamide]
102 | 7.52 | NS(=O)(=O)c1cccc(NC(=O)c2cc(C(F)(F)F)ccc2Oc2ccc(Cl)cc2)c1 [Compound 24, 2-(4-chlorophenoxy)-N-(3-sulfamoylphenyl)-5-(trifluoromethyl)benzamide]
94 | 8.40 | Cc1cc(F)ccc1Oc1ccc(C(F)(F)F)cc1C(=O)Nc1cccc(S(N)(=O)=O)c1 [Compound 25, 2-(4-fluoro-2-methylphenoxy)-N-(3-sulfamoylphenyl)-5-(trifluoromethyl)benzamide]
119 | 8.40 | NS(=O)(=O)c1cccc(NC(=O)c2cc(C(F)(F)F)ccc2Oc2ccc(F)cc2Cl)c1 [Compound 26, 2-(2-chloro-4-fluorophenoxy)-N-(3-sulfamoylphenyl)-5-(trifluoromethyl)benzamide]
101 | 8.22 | COc1cc(F)ccc1Oc1ccc(C(F)(F)F)cc1C(=O)Nc1cccc(S(N)(=O)=O)c1 [Compound 27, 2-(4-fluoro-2-methoxyphenoxy)-N-(3-sulfamoylphenyl)-5-(trifluoromethyl)benzamide]
92 | 7.80 | COc1ccc(Oc2ccc(C(F)(F)F)cc2C(=O)Nc2cccc(S(N)(=O)=O)c2)cc1F [Compound 28, 2-(3-fluoro-4-methoxyphenoxy)-N-(3-sulfamoylphenyl)-5-(trifluoromethyl)benzamide]
100 | 8.30 | COc1c(F)cccc1Oc1ccc(C(F)(F)F)cc1C(=O)Nc1cccc(S(N)(=O)=O)c1 [Compound 29, 2-(3-fluoro-2-methoxyphenoxy)-N-(3-sulfamoylphenyl)-5-(trifluoromethyl)benzamide]
103 | 8.05 | Cc1cc(Cl)ccc1Oc1ccc(C(F)(F)F)cc1C(=O)Nc1cccc(S(N)(=O)=O)c1 [Compound 30, 2-(4-chloro-2-methylphenoxy)-N-(3-sulfamoylphenyl)-5-(trifluoromethyl)benzamide]
82 | 8.22 | COc1ccc(Oc2ccc(C(F)(F)F)cc2C(=O)Nc2cccc(S(N)(=O)=O)c2)c(Cl)c1 [Compound 31, 2-(2-chloro-4-methoxyphenoxy)-N-(3-sulfamoylphenyl)-5-(trifluoromethyl)benzamide]
76 | 8.10 | Cc1ccccc1Oc1ccc(C(F)(F)F)cc1C(=O)Nc1cccc(S(N)(=O)=O)c1 [Compound 32, N-(3-sulfamoylphenyl)-2-(o-tolyloxy)-5-(trifluoromethyl)benzamide]
102 | 8.30 | NS(=O)(=O)c1cccc(NC(=O)c2c(Oc3ccc(F)cc3Cl)cccc2C(F)(F)F)c1 [Compound 33, 2-(2-chloro-4-fluorophenoxy)-N-(3-sulfamoylphenyl)-6-(trifluoromethyl)benzamide]
96 | 7.85 | COc1ccccc1Oc1ccc(C(F)(F)F)cc1C(=O)Nc1cccc(S(N)(=O)=O)c1 [Compound 34, 2-(2-methoxyphenoxy)-N-(3-sulfamoylphenyl)-5-(trifluoromethyl)benzamide]
